Data reported in patent publication US5792622A, “Assay for chemicals” (priority 1995, dated 1998).
Entries after “also recorded” stand apart in the source; their conditions may differ. Like-named read-outs stand apart in the source and are kept apart here.

Key:
A. crystallopoites = format: cell-based; settings: Table 1, incubation 2:00 hrs
R. meliloti [1] = format: cell-based; settings: for absorbance of reduced dye: Table 1, incubation 2:00 hrs
S. typhimurium = format: cell-based; settings: Table 1, incubation 2:00 hrs
Ps fluorescens = format: cell-based; settings: Table 1, incubation 1:57 hrs
B. megaterium = format: cell-based; settings: Table 1, incubation 2:00 hrs
R. leguminosarum = format: cell-based; settings: Table 1, incubation 7:48 hrs
B. japonicum = format: cell-based; settings: Table 1, incubation 7:48 hrs
R. sphaeroides = format: cell-based; settings: Table 1, incubation 11:25 hrs
S. lactis = format: cell-based; settings: Table 1, incubation 9:57 hrs
E. coli = format: cell-based; settings: for absorbance of reduced dye: Table 1, incubation 1:40 hrs
R. meliloti [2] = assay: microbe, parasite or virus in culture; format: cell-based; settings: for absorbance at which the reduction stopped: A550, FIGS. 3 and 5
[3] = cited from earlier work; for Microtox IC50: Table 8
fish (trout fingerlings) = settings: Table 8, trout fingerlings; cited from earlier work
[4] = rhizobium meliloti mtt reduction
[5] = Sinorhizobium meliloti, Table 4, organic compounds, read-out: average (ppm), concentration giving 50% inhibition of dye reduction
[6] = Sinorhizobium meliloti, read-out: Rhizobium/Tetrazolium IC50
[7] = Sinorhizobium meliloti, read-out: IC50 ppm
[8] = Sinorhizobium meliloti, Table 9, read-out: Rhizobium/Tetrazolium ppm
[9] = ratio of the inhibitory concentrations
[10] = read-out: toxic concentration in mM equivalent to ppm of Table 7
[11] = Sinorhizobium meliloti, read-out: Rhizobium/Tetrazolium ppm

O=[N+]([O-])c1ccc(-[n+]2nc(-c3ccccc3)nn2-c2ccc(I)cc2)cc1 [INT, 2-(4-iodophenyl)-3-(4-nitrophenyl)-5-phenyltetrazolium chloride]
absorbance of reduced dye (A. crystallopoites): 0.14
absorbance of reduced dye (R. meliloti [1]): 0.48
absorbance of reduced dye (S. typhimurium): 0.06
absorbance of reduced dye (Ps fluorescens): 0.17
absorbance of reduced dye (B. megaterium): 0.16
absorbance of reduced dye (R. leguminosarum): 0.02
absorbance of reduced dye (B. japonicum): 0.44
absorbance of reduced dye (R. sphaeroides): 0.95
absorbance of reduced dye (S. lactis): 0.08
absorbance of reduced dye (E. coli): 0.12

COc1cc(-c2ccc(-n3nc(-c4ccccc4)n[n+]3-c3ccccc3)c(OC)c2)ccc1-n1nc(-c2ccccc2)n[n+]1-c1ccccc1 [TB, 3,3'-[3,3'-dimethoxy(1,1'-biphenyl)-4,4'-diyl]-bis(2,5-diphenyl-2H-tetrazolium)dichloride]
absorbance of reduced dye (A. crystallopoites): 0.22
absorbance of reduced dye (R. meliloti [1]): 0.12
absorbance of reduced dye (S. typhimurium): 0.22
absorbance of reduced dye (Ps fluorescens): 0.05
absorbance of reduced dye (B. megaterium): 0.17
absorbance of reduced dye (R. leguminosarum): 0
absorbance of reduced dye (B. japonicum): 0.02
absorbance of reduced dye (S. lactis): 0.04
absorbance of reduced dye (E. coli): 0.04

[Cl-].[Na+] [NaCl, sodium chloride]
IC50 (R. meliloti [2]; FIG. 12, 10% NaCl solution): 60,689 ppm
IC50 volume (R. meliloti [2]; FIG. 12, 10% NaCl solution, 590 nm): 606.89 µL
absorbance reached (R. meliloti [2]; at 1000 μl of 10% NaCl solution, 590 nm): 0.1

ClC(Cl)Cl [Chloroform]
IC50 (amount per tube) (R. meliloti [2]): 6.10 mg/tube
IC50 volume (R. meliloti [2]): 827 µL
IC50 (R. meliloti [2]; [4]): 4132 ppm
average (ppm), concentration giving 50% inhibition of dye reduction (R. meliloti [2]; [4]): 2032

O=c1ccc2[n+]([O-])c3ccc(O)cc3oc-2c1 [Resazurin, resazurin]
usefulness of dye reduction by E. coli (E. coli; protocol used with the tetrazolium dyes): did not yield useful results

COc1cc(-c2ccc(-n3nc(-c4ccccc4)n[n+]3-c3ccc([N+](=O)[O-])cc3)c(OC)c2)ccc1-n1nc(-c2ccccc2)n[n+]1-c1ccc([N+](=O)[O-])cc1 [NBT, 2,2'-di-nitrophenyl-5,5'-diphenyl-3,3'(-3,3'-dimethoxy-4,4'-diphenylene)ditetrazolium chloride]
absorbance of reduced dye (A. crystallopoites): 0.27
absorbance of reduced dye (R. meliloti [1]): 0.16
absorbance of reduced dye (S. typhimurium): 0.24
absorbance of reduced dye (Ps fluorescens): 0.04
absorbance of reduced dye (B. megaterium): 0.19
absorbance of reduced dye (R. leguminosarum): 0
absorbance of reduced dye (B. japonicum): 0.01
absorbance of reduced dye (R. sphaeroides): 0.16
absorbance of reduced dye (S. lactis): 0.06
absorbance of reduced dye (E. coli): 0.1

[Fe] [iron]
inhibitory effect on the reduction of tetrazolium dye (R. meliloti [2]): no inhibitory effect

O=C1C(Cl)=CC(=Nc2ccc(O)cc2)C=C1Cl [DCIP, 2,6-dichlorophenol-indophenol]
rate of reduction of the dye (R. meliloti [1]): reduced very slowly

ClC=C(Cl)Cl [trichloroethylene]
IC50 (R. meliloti [2]; [5]): 59.5 µg/mL

[Mn+2] [Manganese]
ppm (50% inhibition of dye reduction) (R. meliloti [2]; [4]): 0.892

O=C1NS(=O)(=O)c2ccccc21 [saccharin]
absorbance to which the reduction would eventually go (R. meliloti [2]): 0.0
IC50 (R. meliloti [2]; Sinorhizobium meliloti): 477 µg/mL

Mercury
inhibition of tetrazolium reduction (R. meliloti [2]): inhibited tetrazolium reduction completely
ppm (50% inhibition of dye reduction) (R. meliloti [2]; [4]): 0.0179
Microtox ppm ([3]; microtox bioluminescence): 0.06

C[S+](C)[O-] [DMSO, dimethyl sulfoxide]
IC50 (R. meliloti [2]): 203.3 μl/tube
Microtox ppm ([3]; microtox bioluminescence): 3,506-102,995

c1ccc(-c2nn(-c3ccccc3)[n+](-c3cccc4ccccc34)n2)cc1 [TV, 2,5-diphenyl-3-(α-napthyl)tetrazolium chloride]
absorbance of reduced dye (A. crystallopoites): 0.08
absorbance of reduced dye (R. meliloti [1]): 0.08
rate of reduction of the dye (R. meliloti [1]; in words): reduced more slowly than MTT
absorbance of reduced dye (S. typhimurium): 0.04
absorbance of reduced dye (Ps fluorescens): 0.01
absorbance of reduced dye (B. megaterium): 0.07
absorbance of reduced dye (R. leguminosarum): 0
absorbance of reduced dye (B. japonicum): 0.14
absorbance of reduced dye (R. sphaeroides): 0.12
absorbance of reduced dye (S. lactis): 0.04
absorbance of reduced dye (E. coli): 0.03

Oc1ccccc1 [Phenol]
sensitivity of Rhizobium/Tetrazolium assay compared with Microtox assay (R. meliloti [2]): at least an order of magnitude more sensitive than the Rhizobium/Tetrazolium assay
IC50 (R. meliloti [2]; [6]): 1220 µg/mL
IC50 (R. meliloti [2]; Sinorhizobium meliloti, read-out: average (ppm), concentration giving 50% inhibition of dye reduction): 1320 µg/mL
Microtox ppm ([3]; microtox bioluminescence): 623
Fish LD50 (50% death of the fish) (fish (trout fingerlings)): 50-100 ppm

CCO [Ethanol]
IC50 (R. meliloti [2]; [7]): 75600 µg/mL
Microtox ppm ([3]; microtox bioluminescence): 23,090-55,388

CCCCCCCCCCCCOS(=O)(=O)[O-].[Na+] [Sodium lauryl sulfate]
IC50 (R. meliloti [2]; [5]): 30.4 µg/mL
IC50 (R. meliloti [2]; [8]): 31 µg/mL
sensitivity of Rhizobium/Tetrazolium assay compared with Microtox assay (R. meliloti [2]; [9]): at least an order of magnitude more sensitive than the Rhizobium/Tetrazolium assay

[Zn] [Zinc]
ppm (50% inhibition of dye reduction) (R. meliloti [2]; Table 7, minerals): 4.750 ppm
sensitivity of Rhizobium/Tetrazolium assay compared with Microtox assay (R. meliloti [2]; [9]): at least an order of magnitude more sensitive for 4 compounds
Microtox IC50 [3]: 476 ppm
Fish LD50 (50% death of the fish) (fish (trout fingerlings)): 0.24-7.20 ppm

[Ca+2].[Cl-].[Cl-] [Calcium, calcium chloride]
effect on the reaction (R. meliloti [2]; 19 ppm, with 500 μl of 5 mM EDTA (0.758 mM EDTA)): does not affect the reaction
ppm (50% inhibition of dye reduction) (R. meliloti [2]; Table 7, minerals): 5.230 ppm
level at which toxic (R. meliloti [2]; in the absence of a counteracting substance): 6 ppm
IC50 (R. meliloti [2]; [10]): 0.0471 mM

[Pb] [Lead]
inhibitory effect on the reduction of tetrazolium dye (R. meliloti [2]): no inhibitory effect

[Cd] [Cadmium]
ppm (50% inhibition of dye reduction) (R. meliloti [2]; Table 7, minerals): 0.838 ppm
Rhizobium/Tetrazolium IC50 (R. meliloti [2]; Table 8): 0.210 ppm
sensitivity of Rhizobium/Tetrazolium assay compared with Microtox assay (R. meliloti [2]; [9]): at least an order of magnitude more sensitive for 4 compounds
Microtox IC50 [3]: 416 ppm
Fish LD50 (50% death of the fish) (fish (trout fingerlings)): 1.0-100 ppm

O=S(=O)([O-])[O-].[Mg+2] [Magnesium, Magnesium sulfate]
ppm (50% inhibition of dye reduction) (R. meliloti [2]; Table 7, minerals): 59.900 ppm
IC50 (R. meliloti [2]; [10]): 0.243 mM

O=[N+]([O-])c1ccc(O)c([N+](=O)[O-])c1 [Dinitrophenol, dinitrophenol]
absorbance at which the reduction stopped (R. meliloti [2]): 0.2
IC50 (R. meliloti [2]; [5]): 574 µg/mL

c1ccccc1 [Benzene]
sensitivity of Rhizobium/Tetrazolium assay compared with Microtox assay (R. meliloti [2]): at least an order of magnitude more sensitive than the Rhizobium/Tetrazolium assay
IC50 (R. meliloti [2]; [6]): 712 µg/mL
IC50 (R. meliloti [2]; [11]): 712 to 2100 µg/mL

CC(C)=O [Acetone]
IC50 (R. meliloti [2]; [7]): 71600 µg/mL
IC50 (R. meliloti [2]; [11]): 1640 µg/mL
Microtox ppm ([3]; microtox bioluminescence): 13305-29,109

Oc1c(Cl)c(Cl)c(Cl)c(Cl)c1Cl [Pentachlorophenol, pentachlorophenol]
inhibition compared with trichlorophenol (R. meliloti [2]): an order of magnitude greater
absorbance at which the reduction stopped (R. meliloti [2]): ≤ 0.25
IC50 (R. meliloti [2]; [5]): 0.206 µg/mL
IC50 (R. meliloti [2]; Sinorhizobium meliloti, Table 8, read-out: Rhizobium/Tetrazolium IC50): 0.143 µg/mL
sensitivity of Rhizobium/Tetrazolium assay compared with Microtox assay (R. meliloti [2]; [9]): at least an order of magnitude more sensitive for 4 compounds; also recorded: two orders of magnitude more sensitive
Microtox IC50 [3]: 2.46-2.71 ppm
Microtox ppm ([3]; Table 9): 2.46-2.71 ppm

CO [Methanol]
IC50 (R. meliloti [2]; Sinorhizobium meliloti, Table 6, solvents, read-out: IC50 ppm): 76500 µg/mL
IC50 (R. meliloti [2]; [8]): 68400 µg/mL
Microtox ppm ([3]; Table 9): 11,368-320400 ppm

Cc1ccccc1 [Toluene]
IC50 (R. meliloti [2]; [6]): 590 µg/mL
IC50 (R. meliloti [2]; [11]): 30 to 502 µg/mL
sensitivity of Rhizobium/Tetrazolium assay compared with Microtox assay (R. meliloti [2]; [9]): at least an order of magnitude more sensitive than the Rhizobium/Tetrazolium assay
Microtox IC50 [3]: 33,833 ppm
Microtox ppm ([3]; Table 9): 18.0-33,833 ppm
Fish LD50 (50% death of the fish) (fish (trout fingerlings)): 23 ppm

[Co] [Cobalt]
ppm (50% inhibition of dye reduction) (R. meliloti [2]; Table 7, minerals): 11.200 ppm

[Ni] [Nickel]
Rhizobium/Tetrazolium ppm (R. meliloti [2]; [4]): 49.3
Microtox ppm ([3]; microtox bioluminescence): 34

[Se] [Selenium]
IC50 (R. meliloti [2]; Sinorhizobium meliloti, Table 7, minerals, read-out: ppm (50% inhibition of dye reduction)): 226 µg/mL

ClC(Cl)=C(Cl)Cl [tetrachloroethylene]
IC50 (R. meliloti [2]; [5]): 34.8 µg/mL
